US20090215713A1, “Use of atp for the manufacture of a medicament for the prevention and treatment of oxidative stress and related conditions” (priority 2004, published 2009)
“Also recorded” adds a separate entry of the source.

Legend:
[1] = ESR measurement of DMPO—OH spin adducts during Fenton chemistry; assay type: biochemical
Procedure: The effect of ATP on the formation or scavenging of hydroxyl radicals, generated by Fenton reagents was measured as DMPO—OH spin adducts in ESR spectra. The ESR studies were performed at room temperature using a Bruker EMX 1273 spectrometer equipped with an ER 4119HS high sensitivity cavity and 12 kW power supply. The following instrument conditions were used: scan range, 60 G; center magnetic field, 3490 G; modulation amplitude, 1.0 G; microwave frequency, 9.86 GHz; time constant, 40.96 ms, scan time, 20.48 ms; number of scans, 50. OH radicals were generated by the Fenton reaction, and 5,5-dimethyl-1-pyrroline N-oxide (DMPO) was used for trapping hydroxyl radicals. Fifty microliters of 10 mM H2O2, 50 μl of 250 mM DMPO, 50 μl milliQ, 50 μl milliQ (control) or sample, and 50 μl 5 mM FeSO4/5 mM EDTA were mixed, and then transferred to a capillary glass tube. After 2 minutes, DMPO—OH spin adducts were measured by ESR. Quantification of the spectra was performed by peak integration using the WIN-EPR spectrum manipulation program.
Electron spin resonance (ESR) studies were performed at room temperature using a Bruker EMX 1273 spectrometer equipped with an ER 4119HS high sensitivity cavity and 12 kW power supply. The following instrument conditions were used: scan range, 60 G; center magnetic field, 3490 G; modulation amplitude, 1.0 G; microwave frequency, 9.86 GHz; time constant, 40.96 ms, scan time, 20.48 ms; number of scans, 50. OH radicals were generated by the Fenton reaction, and 5,5-Dimethyl-1-pyrroline N-oxide (DMPO) was used for trapping hydroxyl radicals. Fifty microliters of 10 mM H2O2, 50 μl 250 mM DMPO, 50 μl milliQ, 50 μl milliQ (blanco) or sample and 50 μl 5 mM FeSO4/5 mM EDTA were mixed, transferred to a capillary glass tube and the DMPO—OH spin adducts were measured after 2 minutes by ESR. Quantification of the spectra (in arbitrary units) was performed by peak integration using the WIN-EPR spectrum manipulation program.

IL-6 = assay: LPS+PHA-induced IL-6 secretion in whole blood under oxidative stress (H2O2); assay type: cell-based, human; conditions: absence or presence of H2O2 (1 and 10 mM)
Procedure: FIG. 12 Effect of ATP on LPS+PHA-induced IL-6 secretion in whole blood from healthy subjects under conditions of oxidative stress. Two concentrations of H2O2 (1 and 10 mM) were added to whole blood, together with the indicated concentrations of ATP. Then, blood was exposed to 10 μg/ml LPS and 1 μg/ml PHA, and incubated for 24 h. The IL-6 released into the supernatants was analyzed using the ELISA method. […] Data are expressed at the mean values; error bars represent SEM.
Whole blood of healthy subjects was collected as described for Experiment 2, and pre-incubated with 1 or 10 mM H2O2 at 5% CO2 and 37° C. for 15 min. Then, ATP was added to the blood at final concentrations of 1-300 μM for the 30 min incubation step, and then incubated as in Experiment 2 with LPS/PHA for 24 hours.

[2] = test system: guinea pig alveolar macrophages; assay: Guinea pig alveolar macrophages incubated with LPS and spin-trap DMPO; assay type: cell-based
Excerpt: As mentioned above, ATP is known to enhance the oxidative burst of neutrophils and other phagocytic cells. […] In a study using guinea pig alveolar macrophages (according to (35, 36)) we confirmed the ATP dependent increase in H2O2 formation. […] This finding underlines the importance and practical relevance of the present invention that ATP attenuates of hydroxyl radical DMPO adduct formation in a more chemically oriented set-up. Our finding that the formation of the DMPO—OH adducts is inhibited by the presence of ATP, also in incubations with alveolar macrophages, is of great promise for the protective effect of ATP in diseases and conditions in which oxidative stress plays a predominant role, as discussed on the previous pages.

[3] = ATP infusions in patients with chronic fatigue syndrome (double-blind); assay type: in vivo, human
Procedure: (§1) Patients with different diseases received infusions of 10-75 μg/kg·min over 8-24 h, at intervals of 1-4 weeks in different randomized clinical trials. In all cases, the first. infusion was given under clinical supervision, subsequent infusions were given in the setting of private homes. Preliminary results in small numbers of patients with persistent rheumatoid arthritis, chronic fatigue syndrome, and cancer in the pre-terminal stage, and lung cancer during curative radiotherapy are given below.
In a double-blind design, 8 out of 9 patients with chronic fatigue syndrome who had been treated with ATP (8 infusions of 24 h), spontaneously reported the following unexpected beneficial effects of ATP infusion: • less pain on the day after the infusion • feeling better during the 8-week infusion period than before or afterwards • more physical energy on the day after the infusion • felt better during the complete infusion period: less pain, better performance status, happier, mentally stronger, less tired, sleeping better • fewer ulcers during the infusion period • feeling less weak/feeble on the day after the infusion, feeling muscles “in a positive sense” In 5 out of 9 patients, these effects were already noted on the day after the first ATP infusion. […] In the placebo group, not even one out of 9 patients spontaneously reported any of such improvements.

[4] = ATP infusions in pre-terminal cancer patients; assay type: in vivo, human
Procedure: as §1
This study was performed in patients of different tumour types with a life expectation of between 8 and 12 weeks. Patients received a maximum of 8 ATP infusions (8 h) at an infusion rate of max. 50 μg/kg·min. […] These subjective improvements were supported by objective outcome assessment using validated questionnaires for self-reliance (Groningen Activity Restriction Scale, GARS), fatigue (Short Fatigue Questionnaire, Smets et al.), and appetite (visual analogue scale, VAS). Below, some of the major effects in these five patients are summarized. Patient 1 (non-small-cell lung cancer): Despite a very low ATP dose (=20-30 μg/kg·min), this patient spontaneously reported that they felt more energetic. Before the study, the patient was not able to independently dress, undress, get in/out of bed, to get out of a chair, or to wash their hands, face or body. After 8 weeks of ATP, the patient was able to perform all of these activities independently. Over 8 weeks, their appetite improved markedly: EORTC-QLQ-30 (4-point scale): improvement from 4 to 1, and on VAS [0-100 mm], from 13 to 63 before lunch, and from 17 to 70 before dinner. The patient's treating pulmonologist concluded a “miraculous improvement” over the 8-week treatment period. On request of the patient, ATP infusions were continued. Patient 2 (primary liver carcinoma): This patient, who suffered from marked anorexia, spontaneously reported that they were “eating again like a building worker” after 8 weeks of ATP treatment. […] Furthermore, the patient felt less tired within 2 weeks of starting ATP infusions. Patient 3 (melanoma): This patient reported marked improvement in appetite. This was confirmed by outcome assessment (VAS), in addition, marked amelioration in fatigue and self reliance was found. After 8 infusion, the patient pledged to continue the ATP infusions. […] After 5 infusions, the patient decided that they felt so much better that they wanted to continue the infusions after the study. Patient 5 (pancreas cancer; study still ongoing): After 4 infusions, the patient noted to feel much more energetic.

[5] = Side effects of intravenous ATP infusions; assay type: in vivo, human; conditions: over 60 home infusions in cancer patients
Procedure: For reasons of patients' safety, there has been no attempt to administer ATP outside a strict medical setting to date. In particular, WO 03/061568 (Rapaport) discloses the administration of ATP over a period of typically 8-10 hours in an outpatient setting within the hospital. […] Thus, both our data and US 2003/0109486 contradict the disclosure of WO 03/061568.
In order to determine the tolerance for ATP as well as the maximally tolerated dose of ATP, the first ATP infusion is preferably administered under medical supervision, usually in an in- or outpatient setting. Subsequent infusions can either be started at the hospital day care centre, at private homes, nursing homes, etc. according to a standardized protocol.

[6] = test system: mice bearing colon tumour; conditions: daily intraperitoneal injections of 25 mmol/L for 10 days; cited from earlier work

With `Nc1ncnc2c1ncn2[C@@H]1O[C@H](COP(=O)(O)OP(=O)(O)OP(=O)(O)O)[C@@H](O)[C@H]1O` [ATP, Adenosine 5′-triphosphate] the “effect on DMPO—OH spin adduct formation” value ([1]; 100 μM) was “significant inhibition”, the “inhibition of the DMPO—OH spin adduct formation” value ([1]; highest concentration used (range 0.1 mM-10 mM)) was 80% and ≈ 80% and the “effect on DMPO—OH spin adduct formation vs control (buffer)” value ([1]; representative ESR spectra, FIG. 1) was “strongly inhibited”. For the same molecule, the “effect on LPS+PHA-induced IL-6 release” value (IL-6) was “no effect; also recorded: not influenced”, the “effect on H2O2 formation” value [2] was “increase” and the “effect on DMPO—OH adduct formation” value ([2]; macrophages incubated with LPS) was “inhibited”. The “patients spontaneously reporting beneficial effects” value ([3]; 8 infusions of 24 h) was 8 out of 9, the “patients noting these effects on the day after the first ATP infusion” value ([3]; human, in vivo) was 5 out of 9 and the “appetite VAS [0-100 mm] before dinner” value ([4]; Patient 1, before) was 17 mm. For the same molecule, the “appetite VAS [0-100 mm] before lunch” value ([4]; Patient 1, before) was 13 mm, the “appetite, EORTC-QLQ-30 (4-point scale)” value ([4]; Patient 1, before) was 4 and the “appetite VAS [0-100 mm] before dinner” value ([4]; Patient 1, over 8 weeks of ATP) was 70 mm. The “appetite VAS [0-100 mm] before lunch” value ([4]; Patient 1, over 8 weeks of ATP) was 63 mm, the “appetite, EORTC-QLQ-30 (4-point scale)” value ([4]; Patient 1, over 8 weeks of ATP) was 1 and the “appetite VAS (0-100)” value ([4]; Patient 2, before) was 20. For the same molecule, the “appetite VAS (0-100)” value ([4]; Patient 2, within 4 weeks) was 95, the “fatigue, 7-point scale (mean of four items of SFQ)” value ([4]; Patient 4, after 4 weeks of ATP infusions) was 5.8 and the “fatigue, 7-point scale (mean of four items of SFQ)” value ([4]; Patient 4, before) was 2.8. The “patients spontaneously reporting marked improvements” value ([4]; patients who had completed >4 ATP infusions) was 5 out of 19, the “serious side effects grade 3-4 on the WHO Common Toxicity Criteria scale” value [5] was “no serious side effects” and the “effect on host weight loss” value [6] was “significant inhibition”.
